Experimental data reported in patent publication US9255094B2, “Pyrido[4,3-B]indoles and methods of use” (Medivation Technologies, Inc., priority 2009, dated 2016).

Assays:
[1] = molecular target: T1, human recombinant adrenergic α2B receptor (Homo sapiens, UniProt P18089); test: Adrenergic α2B radioligand binding assay ([3H]Rauwolscine); conditions: compound at 0.1 μM; 2.5 nM [3H]Rauwolscine; CHO-K1 cells; read-out: Percent Inhibition of ligand binding, Adrenergic (0.1 μM) a2B
T1 construct: expressed in transfected cells; host or cells: Chinese hamster ovary (CHO-K1) cells
T1 sequence (P18089 1-450): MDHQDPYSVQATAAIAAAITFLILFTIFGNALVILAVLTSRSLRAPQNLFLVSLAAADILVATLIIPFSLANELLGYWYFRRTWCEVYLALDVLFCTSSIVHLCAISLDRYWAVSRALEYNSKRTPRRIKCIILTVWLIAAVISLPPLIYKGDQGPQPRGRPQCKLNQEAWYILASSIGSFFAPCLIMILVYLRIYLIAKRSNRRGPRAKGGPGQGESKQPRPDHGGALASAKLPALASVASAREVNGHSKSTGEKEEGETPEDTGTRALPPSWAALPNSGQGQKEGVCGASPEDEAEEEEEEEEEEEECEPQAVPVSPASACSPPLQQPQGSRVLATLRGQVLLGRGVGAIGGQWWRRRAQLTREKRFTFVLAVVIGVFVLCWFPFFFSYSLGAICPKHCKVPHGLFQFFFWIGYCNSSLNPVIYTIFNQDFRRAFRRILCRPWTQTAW
Method: To evaluate in radioligand binding assays the activity of compounds of the invention, human recombinant adrenergic α2B receptor expressed in Chinese hamster ovary (CHO-K1) cells (Uhlen S et al., Eur. J. Pharmacol. 343(1):93, 1998) in a modified Tris-HCl buffer (50 mM Tris-HCl, pH 7.4, 12.5 mM MgCl2, 1 mM EDTA, 0.2% BSA) was used. Compounds of the invention were incubated with 2.5 nM [^3H]Rauwolscine for 60 min at 25° C. Non-specific binding was estimated in the presence of 10 μM Prozosin. Receptor proteins were filtered and washed, the filters were then counted to determine [^3H]Rauwolscine specifically bound.

[2] = molecular target: T2, human recombinant serotonin (5-Hydroxytryptamine) 5-HT5A receptor (Homo sapiens, UniProt P47898); test: Serotonin 5-HT5A radioligand binding assay ([3H]LSD); conditions: compound at 0.1 μM; 1.7 nM [3H]LSD; CHO-K1 cells; read-out: Percent Inhibition of ligand binding, Serotonin (0.1 μM) 5-HT5A
T2 construct: expressed in transfected cells; host or cells: Chinese hamster ovary (CHO-K1) cells
T2 sequence (P47898 whole entry): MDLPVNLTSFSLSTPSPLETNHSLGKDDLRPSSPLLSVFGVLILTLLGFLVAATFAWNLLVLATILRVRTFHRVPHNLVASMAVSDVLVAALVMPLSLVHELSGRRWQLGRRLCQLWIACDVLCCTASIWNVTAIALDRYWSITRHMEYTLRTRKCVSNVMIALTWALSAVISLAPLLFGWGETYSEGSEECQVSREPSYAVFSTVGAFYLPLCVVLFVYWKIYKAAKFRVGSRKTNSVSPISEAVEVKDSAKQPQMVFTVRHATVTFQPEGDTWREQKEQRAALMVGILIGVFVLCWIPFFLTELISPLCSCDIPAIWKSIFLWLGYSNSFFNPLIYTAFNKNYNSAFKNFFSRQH
Method: Compounds of the invention were incubated with 1.7 nM [^3H]Lysergic acid diethylamide (LSD) for 60 min at 37° C. […] Receptor proteins were filtered and washed, the filters were then counted to determine [^3H]LSD specifically bound. Compounds were screened at 1 μM or lower, using 1% DMSO as vehicle. Compounds of the invention were tested in this biochemical assay and percent inhibition of specific binding was determined. Biochemical assay results are presented as the percent inhibition of specific binding in Table 4.

[3] = molecular target: T3, rat adrenergic α1B receptor (Rattus norvegicus, UniProt P15823); test: Adrenergic α1B radioligand binding assay ([3H]Prozosin); conditions: compound at 0.1 μM; 0.25 nM [3H]Prozosin; Wistar Rat liver; read-out: Percent Inhibition of ligand binding, Adrenergic (0.1 μM) a1B
T3 construct: from tissue; host or cells: Wistar Rat liver
T3 sequence (P15823 1-515): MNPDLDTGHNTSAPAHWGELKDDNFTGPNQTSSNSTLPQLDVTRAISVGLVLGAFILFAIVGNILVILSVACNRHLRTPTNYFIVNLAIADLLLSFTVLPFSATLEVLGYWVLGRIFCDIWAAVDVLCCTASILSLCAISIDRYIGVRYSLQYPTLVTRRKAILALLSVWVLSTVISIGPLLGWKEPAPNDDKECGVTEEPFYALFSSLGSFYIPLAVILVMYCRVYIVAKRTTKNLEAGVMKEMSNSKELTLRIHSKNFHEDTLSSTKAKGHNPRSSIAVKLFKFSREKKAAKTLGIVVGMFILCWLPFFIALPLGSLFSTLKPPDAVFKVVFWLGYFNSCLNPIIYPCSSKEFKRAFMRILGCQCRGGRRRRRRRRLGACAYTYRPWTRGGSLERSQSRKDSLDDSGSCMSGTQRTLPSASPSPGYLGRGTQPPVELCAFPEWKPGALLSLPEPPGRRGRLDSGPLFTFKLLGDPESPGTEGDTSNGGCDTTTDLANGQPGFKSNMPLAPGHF
Method: To evaluate in radioligand binding assays the activity of compounds of the invention, rat adrenergic α1B receptor obtained from Wistar Rat liver (Garcia-S'ainz, J. A. et al., Biochem. Biophys. Res. Commun. 186:760, 1992; Michel A. D. et al., Br. J. Pharmacol. 98:883, 1989) in a modified Tris-HCl buffer (50 mM Tris-HCl buffer, pH 7.4, 0.5 mM EDTA) is used. Compounds of the invention are incubated with 0.25 nM [^3H]Prozosin for 60 min at 25° C. Non-specific binding is estimated in the presence of 10 μM phentolamine. Receptor proteins are filtered and washed, the filters are then counted to determine [^3H]Prozosin specifically bound. Compounds are screened at 1 μM or lower, using 1% DMSO as vehicle. Compounds of the invention are tested in this biochemical assay and percent inhibition of specific binding is determined.

[4] = molecular target: T4, human recombinant serotonin (5-Hydroxytryptamine) 5-HT6 receptor (Homo sapiens, UniProt P50406); test: Serotonin 5-HT6 radioligand binding assay ([3H]LSD); conditions: compound at 0.1 μM, HeLa cells, read-out: Percent Inhibition of ligand binding, Serotonin (0.1 μM) 5-HT6
T4 construct: expressed in transfected cells; host or cells: human HeLa cells
T4 sequence (P50406 whole entry): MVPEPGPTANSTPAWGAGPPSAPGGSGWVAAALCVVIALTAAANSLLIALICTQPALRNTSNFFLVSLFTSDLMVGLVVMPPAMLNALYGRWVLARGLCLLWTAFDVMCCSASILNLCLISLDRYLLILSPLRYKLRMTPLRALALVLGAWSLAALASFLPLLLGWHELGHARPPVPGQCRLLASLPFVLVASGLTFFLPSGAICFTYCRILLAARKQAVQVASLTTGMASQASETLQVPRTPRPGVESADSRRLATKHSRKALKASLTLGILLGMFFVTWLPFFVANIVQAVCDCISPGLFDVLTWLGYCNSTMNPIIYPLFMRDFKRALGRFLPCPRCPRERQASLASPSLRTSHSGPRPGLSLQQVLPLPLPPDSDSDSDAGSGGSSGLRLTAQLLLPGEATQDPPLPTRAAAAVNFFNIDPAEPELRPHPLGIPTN
Method: Compounds of the invention were incubated with 1.5 nM [3H]Lysergic acid diethylamide (LSD) for 120 min at 37° C. […] Receptor proteins were filtered and washed, the filters were then counted to determine [3H]LSD specifically bound. Compounds were screened at 1 μM or lower, using 1% DMSO as vehicle. Biochemical assay results are presented as the percent inhibition of specific binding in Table 4.

Structure (SMILES) | inhibition at 0.1 µM [1] [%] | inhibition at 0.1 µM [2] [%] | inhibition at 0.1 µM [3] [%] | inhibition at 0.1 µM [4] [%]
CC[C@](O)(Cn1c2c(c3cc(C)ccc31)CN(C)CC2)c1ccncc1 [Compound 1-63, (R)-1-(2,8-Dimethyl-3,4-dihydro-1H-pyrido[4,3-b]indol-5(2H)-yl)-2-(pyridine-4-yl)butan-2-ol] | 47 | 15 | 5 | 25
CC[C@](O)(Cn1c2c(c3cc(C)ccc31)CN(C)CC2)c1ccc(F)cc1 [Compound 1-60, (R)-1-(2,8-Dimethyl-3,4-dihydro-1H-pyrido[4,3-b]indol-5(2H)-yl)-2-(4-fluorophenyl)butan-2-ol] | 1 | 26 | -2 | 48
CCCC[C@](O)(Cn1c2c(c3cc(Cl)ccc31)CN(C)CC2)c1ccc(F)cc1 [Compound 1-61, (R)-1-(8-Chloro-2-methyl-3,4-dihydro-1H-pyrido[4,3-b]indol-5(2H)-yl)-2-(4-fluorophenyl)hexan-2-ol] | 2 | 5 | 0 | 68
CCCC[C@@](O)(Cn1c2c(c3cc(Cl)ccc31)CN(C)CC2)c1ccc(F)cc1 [Compound 1-67, (S)-1-(8-chloro-2-methyl-3,4-dihydro-1H-pyrido[4,3-b]indol-5(2H)-yl)-2-(4-fluorophenyl)hexan-2-ol] | -3 | -11 | -2 | 25
Cc1ccc2c(c1)c1c(n2CCc2ccc(C)nc2)CCN(CC(F)(F)F)C1 [Compound 1-65, 8-methyl-5-(2-(6-methylpyridin-3-yl)ethyl)-2-(2,2,2-trifluoroethyl)-2,3,4,5-tetrahydro-1H-pyrido[4,3-b]indole] | -9 | -12 | -4 | -6
